Test results taken from patent publication US10703746B2, “Mutant IDH1 inhibitors useful for treating cancer” (THE UNITED STATES OF AMERICA, AS REPRESENTED BY THE …, priority 2014, dated 2020).

Tests used:
IDH1 R132H = IDH1 R132H (Homo sapiens, UniProt O75874, R132H); assay: IDH1 R132H enzymatic assay (NADPH depletion coupled to diaphorase/resazurin); type: biochemical
IDH1 R132C = IDH1 R132C (Homo sapiens, UniProt O75874, R132C); assay: IDH1 R132C enzymatic assay (NADPH depletion coupled to diaphorase/resazurin); type: biochemical
Summary of the method: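 NADPH depletion, read via diaphorase/resazurin coupling, after adding substrate at 0.6 mM α-KG and 0.012 mM NADPH. Beforehand, 0.00032 mg/mL enzyme sat with compound 30 min at room temperature in pH 6.5 potassium phosphate buffer with MgCl2, glycerol and BSA.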

[1] = IDH1 R132H enzymatic inhibition, IC50 class
[2] = IDH1 R132C enzymatic inhibition, IC50 class
[3] = enzymatic inhibition, IDH1 R132H
[4] = enzymatic inhibition, IDH1 R132C

Sequence of IDH1 R132C (O75874 whole entry R132C): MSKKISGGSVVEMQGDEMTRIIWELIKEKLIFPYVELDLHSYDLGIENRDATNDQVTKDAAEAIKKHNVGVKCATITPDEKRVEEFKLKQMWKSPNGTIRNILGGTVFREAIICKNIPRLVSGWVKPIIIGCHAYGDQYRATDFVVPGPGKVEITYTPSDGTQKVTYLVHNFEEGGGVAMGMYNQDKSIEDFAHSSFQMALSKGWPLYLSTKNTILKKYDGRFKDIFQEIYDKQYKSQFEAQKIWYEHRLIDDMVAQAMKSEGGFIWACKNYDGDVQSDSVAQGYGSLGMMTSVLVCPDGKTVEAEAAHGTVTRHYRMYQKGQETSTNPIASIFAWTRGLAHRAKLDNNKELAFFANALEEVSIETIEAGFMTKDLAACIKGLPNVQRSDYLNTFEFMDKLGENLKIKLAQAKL
Sequence of IDH1 R132H (O75874 whole entry R132H): as the sequence (O75874 whole entry R132C) above, with C132H counted along it

SMILES | IC50 (IDH1 R132H; [1]) [nM] | IC50 (IDH1 R132C; [2]) [nM] | IC50 (IDH1 R132H; [3]) [nM] | IC50 (IDH1 R132C; [4]) [nM]
CCc1cccc(CC)c1-n1c(C)c(C(=O)NC2CCCC(N)C2)cc(-c2nc(-c3ccc(Cl)cc3)cs2)c1=O (mixture of isomers) [Compound 126] | 5000 to 20000 | 1000 to 5000 |  | 
COc1cccc(C(=O)O)c1-n1c2c(cc(-c3nc(-c4ccc(Cl)cc4)cs3)c1=O)C(=O)CC(C)(C)C2 [Compound 46] | 1000 to 5000 | 1000 to 5000 |  | 
CCc1cccc(CC)c1-n1c(C)c(C(=O)NC2CCCC(O)C2)cc(-c2nc(-c3ccc(Cl)cc3)cs2)c1=O (stereo not drawn) [Compound 18] | 5000 to 20000 | 1000 to 5000 |  | 
COc1ccc(OC)c(-n2c3c(cc(-c4nc5ccc(Cl)cc5s4)c2=O)C(=O)CC(C)(C)C3)c1 [Compound 149] | > 20000 | 1000 to 5000 |  | 
CCc1ncc(F)cc1-n1c(C=C(C)C)c(C(=O)N2CCNCC2)cc(-c2nc(-c3ccc(Cl)cc3)cs2)c1=O [Compound 507] |  |  | < 300 | < 300
COc1ccc(OC)c(-n2c3c(cc(-c4nc5cc(Cl)ccc5s4)c2=O)C(=O)CC(C)(C)C3)c1 [Compound 175] | < 300 | 300 to 1000 |  | 
CCc1cccc(CC)c1-n1c(C=C(C)C)c(C(=O)N2CCNCC2CC)cc(-c2nc(-c3ccc(Cl)cc3)cs2)c1=O (stereo not drawn) [Compound 569] |  |  | < 300 | < 300
C#Cc1ccccc1-n1c(C=C(C)C)c(C(=O)N2CCNCC2)cc(-c2nc(-c3ccc(Cl)cc3)cs2)c1=O [Compound 558] |  |  | < 300 | < 300
COc1cc(N)ccc1-n1c2c(cc(-c3nc(-c4ccc(Cl)cc4)cs3)c1=O)C(=O)CC(C)(C)C2 [Compound 95] | 1000 to 5000 | 1000 to 5000 |  | 
CCc1cccc(CC)c1-n1c(CC(C)C)c(C(=O)N2CCNCC2)cc(-c2nc(-c3ccc(Cl)cc3)cs2)c1=O [Compound 231] | < 300 | < 300 |  | 
CCc1cccc(CC)c1-n1c(C)c(C(=O)N(C)C)cc(-c2nc(-c3ccc(Cl)cc3)cs2)c1=O [Compound 271] | 1000 to 5000 | 1000 to 5000 |  | 
CC(C)=Cc1c(C(=O)N2CCNCC2)cc(-c2nc(-c3ccc(Cl)cc3)cs2)c(=O)n1-c1cc(F)ccc1OC(C)C [Compound 530] |  |  | < 300 | 300 to 1000
CCOc1ncc(F)cc1-n1c(C=C(C)C)c(C(=O)N2CCNCC2)cc(-c2nc(-c3ccc(C(F)F)cn3)cs2)c1=O [Compound 474] |  |  | 300 to 1000 | 1000 to 5000
COc1ccc(OC)c(-n2c(C=C(C)C)c(C(=O)N3CCNCC3)cc(-c3nc(-c4ccc(Cl)cc4)cs3)c2=O)c1 [Compound 380] | < 300 | < 300 |  | 
CC1(C)CC(=O)c2cc(-c3nc(-c4ccc(Cl)cc4)cs3)c(=O)n(-c3cn[nH]c3)c2C1 [Compound 177] | 5000 to 20000 | 5000 to 20000 |  | 
CC1(C)CC(=O)c2cc(-c3nc(-c4ccc(Cl)cc4)cs3)c(=O)n(-c3ccccn3)c2C1 [Compound 121] | 5000 to 20000 | 5000 to 20000 |  | 
CCc1cccc(CC)c1-n1c(C(C)C)c(C(=O)N2CCN[C@H](CO)C2)cc(-c2nc(-c3ccc(Cl)cc3)cs2)c1=O [Compound 252] | 300 to 1000 | 300 to 1000 |  | 
CCc1cccc(CC)c1-n1c(CC(C)C)c(C(=O)N2CCNCC2)cc(-c2nc(-c3ccc(Cl)cc3)co2)c1=O [Compound 340] | 300 to 1000 | 300 to 1000 |  | 
CCc1cccc(CC)c1-n1c(CC(C)C)c(C(=O)N2CCNCC2)cc(-c2nc(-c3ccc(Cl)cc3)c(C#N)s2)c1=O [Compound 501] |  |  | 300 to 1000 | 300 to 1000
CCc1cccc(CC)c1-n1c(C)c(C(=O)N2CCCCC2)cc(-c2nc(-c3ccc(Cl)cc3)cs2)c1=O [Compound 156] | 1000 to 5000 | 1000 to 5000 |  | 
Cc1ccc(CO)cc1-n1c2c(cc(-c3nc(-c4ccc(Cl)cc4)cs3)c1=O)C(=O)CCC2 [Compound 651] | 1000 to 5000 | 1000 to 5000 |  | 
Cc1ccccc1-n1c(C)c(C(=O)N2CCNCC2)cc(-c2nc(-c3ccc(Cl)cc3)cs2)c1=O [Compound 470] |  |  | 1000 to 5000 | 5000 to 20000
CN1CCN(c2ccc(C(F)(F)F)c(-n3c4c(cc(-c5nc(-c6ccc(Cl)cc6)cs5)c3=O)C(=O)CC(C)(C)C4)c2)CC1 [Compound 645] | 1000 to 5000 | 1000 to 5000 |  | 
CCc1cccc(CC)c1-n1c(C)c(C(=O)N2CCN[C@H](C(=O)OC)C2)cc(-c2nc(-c3ccc(Cl)cc3)cs2)c1=O [Compound 41] | 5000 to 20000 | 1000 to 5000 |  | 
CCOc1ccc(F)cc1-n1c(C=C(C)C)c(C(=O)N2CCNCC2)cc(-c2nc(-c3ccc(Cl)cc3)cs2)c1=O [Compound 381] | < 300 | < 300 |  | 
CCc1ccc(Cl)cc1-n1c(C=C(C)C)c(C(=O)N2CCNCC2)cc(-c2nc(-c3ccc(C(F)(F)F)cc3)cs2)c1=O [Compound 576] |  |  | < 300 | < 300
CCOc1ncc(F)cc1-n1c(C=C(C)C)c(C(=O)N2CCNCC2)cc(-c2nc(-c3ccc(C(F)F)nc3)cs2)c1=O [Compound 520] |  |  | < 300 | 1000 to 5000

SMILES | IC50 (IDH1 R132H; [1]) [nM] | IC50 (IDH1 R132C; [2]) [nM] | IC50 (IDH1 R132H; [3]) [nM] | IC50 (IDH1 R132C; [4]) [nM]
CC1(C)CC(=O)c2cc(-c3nc(-c4ccc(Cl)cc4)cs3)c(=O)n(-c3ccccc3N3CCOCC3)c2C1 [Compound 248] | 1000 to 5000 | 300 to 1000 |  | 
CCc1cccc(CC)c1-n1c(C=C(C)C)c(C(=O)N2CCN[C@@H](C(=O)O)C2)cc(-c2nc(-c3ccc(C(F)(F)F)cc3)cs2)c1=O [Compound 577] |  |  | < 300 | < 300
CCc1cccc(CC)c1-n1c(COCCOC)c(C(=O)N2CCNCC2)cc(-c2nc(-c3ccc(Cl)cc3)cs2)c1=O [Compound 393] | < 300 | 300 to 1000 |  | 
CCc1cccc(CC)c1-n1c(CC(C)C)c(C(=O)N2CCNCC2)cc(-c2nc(/C=C/c3ccc(Cl)cc3)c(C)s2)c1=O [Compound 555] |  |  | 1000 to 5000 | 300 to 1000
CCc1cccc(CC)c1-n1c2c(cc(-c3nc(-c4ccccc4OC)cs3)c1=O)C(=O)CC(C)(C)C2 [Compound 179] | 1000 to 5000 | 1000 to 5000 |  | 
CC1(C)CC(=O)c2cc(-c3nc(-c4ccc(Cl)cc4)cs3)c(=O)n(-c3ccccc3O)c2C1 [Compound 199] | 5000 to 20000 | 5000 to 20000 |  | 
COc1ccc(C#N)cc1-n1c(C=C(C)C)c(C(=O)N2CCNCC2)cc(-c2nc(-c3ccc(Cl)cc3)cs2)c1=O [Compound 603] |  |  | 300 to 1000 | 300 to 1000
Cc1cccc(CN2CCN(C)CC2)c1-n1c2c(cc(-c3nc(-c4ccc(Cl)cc4)cs3)c1=O)C(=O)CCC2 [Compound 468] |  |  | 5000 to 20000 | 5000 to 20000
CCOc1ccc(F)cc1-n1c(CC(C)C)c(C(=O)N2CCNCC2)cc(-c2nc(-c3ccc(C(F)F)cc3)cs2)c1=O [Compound 686] | 300 to 1000 | 300 to 1000 |  | 
CCc1cccc(CC)c1-n1c2c(cc(-c3nc(-c4ccc(Cl)cc4)cs3)c1=O)C(=O)NC2 [Compound 74] | 1000 to 5000 | 5000 to 20000 |  | 
CCc1cccc(CC)c1-n1c2c(cc(-c3nc(-c4ccc(C(F)(F)F)cc4)cs3)c1=O)C(=O)CC(C)(C)C2 [Compound 186] | 300 to 1000 | < 300 |  | 
CC1(C)CC(=O)c2cc(-c3nc(-c4ccc(Cl)cc4)cs3)c(=O)n(-c3ccccc3F)c2C1 [Compound 195] | 300 to 1000 | 300 to 1000 |  | 
COc1cc(F)ccc1-n1c2c(cc(-c3nc(-c4ccc(Cl)cc4)cs3)c1=O)C(=O)CC(C)(C)C2 [Compound 557] |  |  | 1000 to 5000 | 1000 to 5000
CC(C)=Cc1c(C(=O)N2CCNCC2)cc(-c2nc(-c3ccc(Cl)cc3)cs2)c(=O)n1-c1ccc[nH]c1=O [Compound 616] |  |  | 5000 to 20000 | 5000 to 20000
CCc1cccc(CC)c1-n1c(CC(C)C)c(C(=O)N2CCNCC2)cc(-c2nc(Nc3ccc(Cl)cc3)c(C)s2)c1=O [Compound 412] |  |  | 5000 to 20000 | 5000 to 20000
CCc1cccc(CC)c1-n1c2c(cc(-c3nc(-c4cccnc4)cs3)c1=O)C(=O)CC(C)(C)C2 [Compound 119] | 5000 to 20000 | 1000 to 5000 |  | 
CCc1cccc(CC)c1-n1c(CC(C)C)c(C(=O)N2CCNC(CO)C2)cc(-c2nc(-c3ccc(Cl)cc3)cs2)c1=O (stereo not drawn) [Compound 201] | < 300 | < 300 |  | 
COc1ncccc1-n1c2c(cc(-c3nc(-c4ccc(Cl)cc4)cs3)c1=O)C(=O)CC(C)(C)C2 [Compound 661] | 1000 to 5000 | 300 to 1000 |  | 
CC(C)=Cc1c(C(=O)N2CCNCC2)cc(-c2nc(-c3ccc(Cl)cc3)cs2)c(=O)n1-c1cc(C)cnc1OC(C)C [Compound 401] | < 300 | < 300 |  | 
CCOc1ccc(Cl)cc1-n1c(CC(C)C)c(C(=O)N2CCNCC2)cc(-c2nc(-c3ccc(C(F)F)cc3)cs2)c1=O [Compound 687] | 300 to 1000 | 300 to 1000 |  | 
CCOc1ncccc1-n1c(C=C(C)C)c(C(=O)N2CCNCC2)cc(-c2nc(-c3ccc(Cl)cc3)cs2)c1=O [Compound 331] | < 300 | 300 to 1000 |  | 
CCc1cccc(CC)c1-n1c(C(C)C)c(C(=O)NCCO)cc(-c2nc(-c3ccc(Cl)cc3)cs2)c1=O [Compound 218] | < 300 | 300 to 1000 |  | 
CCc1cccc(CC)c1-n1c2c(cc(-c3nc(-c4cccc(F)c4)cs3)c1=O)C(=O)CC(C)(C)C2 [Compound 209] | 1000 to 5000 | 1000 to 5000 |  | 
CCc1cccc(CC)c1-n1c(CC(C)C)c(C(=O)N2CCNC(C)(C)C2)cc(-c2nc(-c3ccc(Cl)cc3)cs2)c1=O [Compound 70] | 300 to 1000 | < 300 |  | 
CCc1cccc(CC)c1-n1c(CC(C)C)c(C(=O)N2CCNCC2)cc(-c2nc(-c3ccc(C(F)(F)F)cc3)cs2)c1=O [Compound 654] | < 300 | < 300 |  | 
CC1(C)CC(=O)c2cc(-c3nc(-c4ccc(Cl)cc4)cs3)c(=O)n(-c3cc(Cl)ccc3Cl)c2C1 [Compound 522] |  |  | 1000 to 5000 | 300 to 1000
CCOc1ccc(C)cc1-n1c(CC(C)C)c(C(=O)N2CCNCC2)cc(-c2nc(-c3ccc(C(F)F)cc3)cs2)c1=O [Compound 685] | < 300 | < 300 |  | 
